Assay results: US20230157996A1, “SMALL-MOLECULE INHIBITOR TARGETING EB VIRUS NUCLEAR ANTIGEN PROTEIN, PREPARATION METHOD AND USE THEREOF” (priority 2020, published 2023)

System: C666-1 cells
Assay: C666-1 cell viability single concentration (50 μM) inhibition rate (Resazurin)
Type: cell-based
Details: Homo sapiens, C6661, 72 h, 50 μM compound, 72 hours, C666-1 cells; read-out: C666-1 cell viability single concentration (50 μM) inhibition rate, Ratio* (Inh %)
In short: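 EBV-positive C666-1 cells (5×10^3/well), pre-cultured 24 h, were exposed to compound at 50 μmol/L final for 72 h at 37° C, 5% CO2, in duplicate. Viability by resazurin (3 h, ex 560/em 590 nm); inhibition rate computed relative to DMSO control and medium-only blank.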

| SMILES | inhibition at 50 µM |
| --- | --- |
| COC(=O)c1cccc(N2CC(Oc3ccc(OC(C)C)cc3)C2)c1-n1cccc1 [Example 109, Methyl 3-(3-(4-isopropoxyphenoxy)azetidin-1-yl)-2-(1H-pyrrol-1-yl)benzoate] | < 10% |
| O=C(O)c1cccc(N2CC(Oc3ccc(COC4CCOC4)cc3)C2)c1-n1cccc1 (stereo not shown) [Example 376] | 10 to 30% |
| COC(=O)c1cccc(N2CC(S(=O)(=O)C3CCCCC3)C2)c1-n1cccc1 [Example 355, Methyl 3-(3-(cyclohexylsulfonyl)azetidin-1-yl)-2-(1H-pyrrol-1-yl)benzoate] | 10 to 30% |
| O=C(O)c1cccc(N2CC(Oc3ccc(COc4cncc(F)c4)cc3)C2)c1-n1cccc1 [Example 359, 3-(3-(4-(((5-fluoropyridin-3-yl)oxy)methyl)phenoxy)azetidin-1-yl)-2-(1H-pyrrol-1-yl)benzoic acid] | < 10% |
| COC(=O)c1cccc(N2CC(Oc3ccc(COc4cccc(C(F)(F)F)c4)cc3)C2)c1-n1cccc1 [Example 249, Methyl 3-(3-(4-((3-(trifluoromethyl)phenoxy)methyl)phenoxy)azetidin-1-yl)-2-(1H-pyrrol-1-yl)benzoate] | < 10% |
| COC(=O)c1cccc(N2CC(Oc3ccc(CO)cc3)C2)c1-c1cccc(NS(C)(=O)=O)c1 [Compound 65, Methyl 3′-(methylsulfonamido)-6-(3-(4-(hydroxymethyl)phenoxy)azetidin-1-yl)-[1,1′-biphenyl]-2-formate] | 30 to 50% |
| COC(=O)c1cccc(N2CC(Oc3ccc(COC(=S)Nc4ccc(Cl)cc4)cc3)C2)c1-n1cccc1 [Example 236, Methyl 3-(3-(4-((((4-chlorophenyl)thiocarbamoyl)oxy)methyl)phenoxy)azetidin-1-yl)-2-(1H-pyrrol-1-yl)benzoate] | 10 to 30% |
| COC(=O)c1cccc(N2CC(Oc3ccc4cc[nH]c4c3)C2)c1-n1cccc1 [Example 103, Methyl 3-(3-((1H-indol-6-yl)oxy)azetidin-1-yl)-2-(1H-pyrrol-1-yl)benzoate] | 10 to 30% |
| CC(C)C(=O)c1ccc(OC2CN(c3cccc(C(=O)O)c3-n3cccc3)C2)cc1 [Example 217, 3-(3-(4-isobutyrylphenoxy)azetidin-1-yl)-2-(1H-pyrrol-1-yl)benzoic acid] | < 10% |
| Cc1ccc(S(=O)(=O)N(C#Cc2cccc(C(=O)O)c2-n2cccc2)Cc2ccccc2)cc1 [Example 380, 3-(((N-benzyl-4-methylphenyl)sulfonamido)ethynyl)-2-(1H-pyrrol-1-yl)benzoic acid] | < 10% |
| O=C(O)c1cccc(N2CC(Oc3ccc(Cl)nc3)C2)c1-n1cccc1 [Compound 86, 3-(3-((6-chloropyridin-3-yl)oxy)azetidin-1-yl)-2-(1H-pyrrol-1-yl)benzoic acid] | < 10% |
| O=C(O)c1cccc(OC2CN(c3cccc(C(=O)NCc4ccccc4)c3)C2)c1 [Compound 71, 3-((1-(3-(benzylcarbamoyl)phenyl)azetidin-3-yl)oxy)benzoic acid] | < 10% |
| COC(=O)c1cccc(N2CC(OCc3cscn3)C2)c1-n1cccc1 [Example 140] | 10 to 30% |
| COC(=O)c1cccc(C#CN(Cc2ccccc2)S(=O)(=O)c2csc3ccccc23)c1-n1cccc1 [Example 320, Methyl 3-((N-benzylbenzo[b]thiophen-3-sulfonamido)ethynyl)-2-(1H-pyrrol-1-yl)benzoate] | < 10% |
| COc1cccc(-c2c(C(=O)O)cccc2N2CC(Oc3ccc(CO)cc3)C2)c1 [Compound 67, 3′-methoxy-6-(3-(4-(hydroxymethyl)phenoxy)azetidin-1-yl)-[1,1′-biphenyl]-2-formic acid] | < 10% |
| CS(=O)(=O)Nc1ccc(OC2CN(c3cccc(C(=O)O)c3-n3cccc3)C2)cc1 [Example 125, 3-(3-(4-(methylsulfonamido)phenoxy)azetidin-1-yl)-2-(1H-pyrrol-1-yl)benzoic acid] | < 10% |
| O=C(O)c1cccc(N2CC(Oc3cc(F)nc(F)c3)C2)c1-n1cccc1 [Example 285, 3-(3-((2,6-difluoropyridin-4-yl)oxy)azetidin-1-yl)-2-(1H-pyrrol-1-yl)benzoic acid] | < 10% |
| Nc1c(C(=O)O)cccc1N1CC2(CN(c3cccc(NS(=O)(=O)C4CC4)c3)C2)C1 [Compound 32, 2-amino-3-(6-(3-(cyclopropylsulfonamido)phenyl)-2,6-diazaspiro[3.3]heptan-2-yl)benzoic acid] | < 10% |
| COC(=O)c1cccc(N2CC(Oc3cccc(Oc4ccccc4)c3)C2)c1-n1cccc1 [Example 222, Methyl 3-(3-(3-phenoxyphenoxy)azetidin-1-yl)-2-(1H-pyrrol-1-yl)benzoate] | < 10% |

| SMILES | inhibition at 50 µM |
| --- | --- |
| COC(=O)c1cccc(N2CC(Oc3ccc(CNS(=O)(=O)c4ccc(C)cc4)cc3)C2)c1-n1cccc1 [Example 283, Methyl 3-(3-(4-(((4-methylphenyl)sulfonamido)methyl)phenoxy)azetidin-1-yl)-2-(1H-pyrrol-1-yl)benzoate] | > 50% |
| COC(=O)c1cccc(N2CC(Oc3ccc(Oc4ccc(F)cc4)cc3)C2)c1-n1cccc1 [Example 202, Methyl 3-(3-(4-(4-fluorophenoxy)phenoxy)azetidin-1-yl)-2-(1H-pyrrol-1-yl)benzoate] | < 10% |
| CCNC(=S)OCc1ccc(OC2CN(c3cccc(C(=O)OC)c3-n3cccc3)C2)cc1 [Example 238] | 10 to 30% |
| COCCOc1ccc(OC2CN(c3cccc(C(=O)O)c3-n3cccc3)C2)cc1 [Example 225, 3-(3-(4-(2-methoxyethoxy)phenoxy)azetidin-1-yl)-2-(1H-pyrrol-1-yl)benzoic acid] | 10 to 30% |
| COC(=O)c1cccc(N2CC(Oc3ccc(CO)cc3)C2)c1-c1cc2ccccc2s1 [Example 395, Methyl 2-(benzo[b]thiophen-2-yl)-3-(3-(4-(hydroxymethyl)phenoxy)azetidin-1-yl)benzoate] | 10 to 30% |
| O=C(Nc1ccc(F)cc1)c1ccc(OC2CN(c3cccc(C(=O)O)c3-n3cccc3)C2)cc1 [Example 268, 3-(3-(4-((4-fluorophenyl)carbamoyl)phenoxy)azetidin-1-yl)-2-(1H-pyrrol-1-yl)benzoic acid] | < 10% |
| COC(=O)c1cccc(N2CC(NS(=O)(=O)c3ccc(C)cc3)C2)c1-n1cccc1 [Example 176, Methyl 3-(3-((4-methylphenyl)sulfonamido)azetidin-1-yl)-2-(1H-pyrrol-1-yl)benzoate] | 10 to 30% |
| O=C(Nc1ccc(Cl)cc1)Nc1ccc(OC2CN(c3cccc(C(=O)O)c3-n3cccc3)C2)cc1 [Example 129, 3-(3-(4-(3-(4-chlorophenyl)ureido)phenoxy)azetidin-1-yl)-2-(1H-pyrrol-1-yl)benzoic acid] | < 10% |
| COC(=O)c1cccc(N2CC(NC(=O)NC3CC3)C2)c1-n1cccc1 [Example 164, Methyl 3-(3-(3-cyclopropylureido)azetidin-1-yl)-2-(1H-pyrrol-1-yl)benzoate] | < 10% |
| COC(=O)c1cccc(N2CC(Oc3ccc(Cl)cc3)C2)c1-n1cccc1 [Compound 95, Methyl 3-(3-(4-chlorophenoxy)azetidin-1-yl)-2-(1H-pyrrol-1-yl)benzoate] | < 10% |
| Nc1ccccc1N1CC2(C1)CN(c1cccc(C(=O)O)c1-n1cccc1)C2 [Compound 20, 3-(6-(2-aminophenyl)-2,6-diazaspiro[3.3]heptan-2-yl)-2-(1H-pyrrol-1-yl)benzoic acid] | < 10% |
| CNCCOc1ccc(OC2CN(c3cccc(C(=O)OC)c3-n3cccc3)C2)cc1 [Example 309, Methyl 3-(3-(4-(2-(methylamino)ethoxy)phenoxy)azetidin-1-yl)-2-(1H-pyrrol-1-yl)benzoate] | 10 to 30% |
| O=C(O)c1cccc(N2CC(Oc3ccc(CO)cc3)C2)c1-c1ccc2ccsc2c1 [Compound 44, 2-(benzo[b]thiophen-6-yl)-3-(3-(4-(hydroxymethyl)phenoxy)azetidin-1-yl)benzoic acid] | < 10% |
| COC(=O)c1cccc(N2CC(Oc3ccc(OCCNC(C)=O)c(OC)c3)C2)c1-n1cccc1 [Example 220, Methyl 3-(3-(4-(2-acetylaminoethoxy)-3-methoxyphenoxy)azetidin-1-yl)-2-(1H-pyrrol-1-yl)benzoate] | 10 to 30% |
| COC(=O)c1cccc(N2CC(Sc3ccc(Cl)cc3)C2)c1-n1cccc1 [Example 349, Methyl 3-(3-((4-chlorophenyl)thio)azetidin-1-yl)-2-(1H-pyrrol-1-yl)benzoate] | < 10% |
| COC(=O)c1cccc(C2CC2c2ccccc2)c1-n1cccc1 (stereo not shown) [Example 272, Methyl 3-(2-phenylcyclopropyl)-2-(1H-pyrrol-1-yl)benzoate] | 10 to 30% |
| COC(=O)c1cccc(C#CN(Cc2ccc3c(ccn3C)c2)S(=O)(=O)c2csc3ccccc23)c1-n1cccc1 [Example 334, Methyl 3-((N-((1-methyl-1H-indol-5-yl)methyl)benzo[b]thiophen-3-sulfonamido)ethynyl)-2-(1H-pyrrol-1-yl)benzoate] | > 50% |
| N#Cc1ccc(OC2CN(c3cccc(C(=O)O)c3-n3cccc3)C2)cc1 [Compound 94, 3-(3-(4-cyanophenoxy)azetidin-1-yl)-2-(1H-pyrrol-1-yl)benzoic acid] | < 10% |
| O=C(O)c1cccc(C#CN2Cc3ccccc3S2(=O)=O)c1-n1cccc1 [Example 379] | > 50% |

Same assay, conditions: Homo sapiens, C6661, 72 h, read-out: C666-1 cell viability single concentration (50 μM) inhibition rate, Ratio* (Inh %)

| SMILES | inhibition at 50 µM |
| --- | --- |
| Cc1ccc(S(=O)(=O)N(C#Cc2cccc(C(=O)O)c2-n2cccc2)CC2CCN(C)CC2)cc1 [Example 319, Lithium 3-(((4-methyl-N-((1-methylpiperidin-4-yl)methyl)phenyl)sulfonamido)ethynyl)-2-(1H-pyrrol-1-yl)benzoate] | > 50% |
| Cc1ccc(S(=O)(=O)N(C#Cc2cccc(C(=O)O)c2-n2cccc2)Cc2ccc(C(F)(F)F)cc2)cc1 [Example 347] | 30 to 50% |
